In ChEMBL document CHEMBL5726312, “TYK2 inhibitors and uses thereof” (2019):

These compounds were tested against Non-receptor tyrosine-protein kinase TYK2 (Homo sapiens, UniProt P29597) (assay: Tyk2 & JAK2 Caliper Assay: The caliper machine employs an off chip mobility shift assay to detect phosphorylated peptide substrates from kinase assays, using microfluidics technology. The assays are carried out at ATP concentration equivalent to the ATP Km, and at 1 mM ATP. Compounds are serially diluted in DMSO then further diluted in assay buffer (25 mM HEPES, pH 7.5, 0.01% Brij-35, 0.01% Triton, 0.5 mM EGTA). 5 ul of diluted compound was added into wells first, then 10 ul of enzyme mix was added into wells, followed by 10 uL of substrate mix (peptide and ATP in 10 mM MgCl2) to start reaction. Reaction was incubated at 28° C. for 25 min and then added 25 ul stop buffer (100 mM HEPES, 0.015% Brij-35, 50 mM EDTA), followed by reading with Caliper. JAK2 at 1 nM final concentration and TYK2 at 9.75 nM are from Carna, and substrates used are ATP at 20 and 16 uM, respectively. JAK2 assay uses peptide 22 and TYK2 uses peptide 30 (Caliper), each at 3 uM.).
Non-receptor tyrosine-protein kinase TYK2, sequence (P29597 whole entry): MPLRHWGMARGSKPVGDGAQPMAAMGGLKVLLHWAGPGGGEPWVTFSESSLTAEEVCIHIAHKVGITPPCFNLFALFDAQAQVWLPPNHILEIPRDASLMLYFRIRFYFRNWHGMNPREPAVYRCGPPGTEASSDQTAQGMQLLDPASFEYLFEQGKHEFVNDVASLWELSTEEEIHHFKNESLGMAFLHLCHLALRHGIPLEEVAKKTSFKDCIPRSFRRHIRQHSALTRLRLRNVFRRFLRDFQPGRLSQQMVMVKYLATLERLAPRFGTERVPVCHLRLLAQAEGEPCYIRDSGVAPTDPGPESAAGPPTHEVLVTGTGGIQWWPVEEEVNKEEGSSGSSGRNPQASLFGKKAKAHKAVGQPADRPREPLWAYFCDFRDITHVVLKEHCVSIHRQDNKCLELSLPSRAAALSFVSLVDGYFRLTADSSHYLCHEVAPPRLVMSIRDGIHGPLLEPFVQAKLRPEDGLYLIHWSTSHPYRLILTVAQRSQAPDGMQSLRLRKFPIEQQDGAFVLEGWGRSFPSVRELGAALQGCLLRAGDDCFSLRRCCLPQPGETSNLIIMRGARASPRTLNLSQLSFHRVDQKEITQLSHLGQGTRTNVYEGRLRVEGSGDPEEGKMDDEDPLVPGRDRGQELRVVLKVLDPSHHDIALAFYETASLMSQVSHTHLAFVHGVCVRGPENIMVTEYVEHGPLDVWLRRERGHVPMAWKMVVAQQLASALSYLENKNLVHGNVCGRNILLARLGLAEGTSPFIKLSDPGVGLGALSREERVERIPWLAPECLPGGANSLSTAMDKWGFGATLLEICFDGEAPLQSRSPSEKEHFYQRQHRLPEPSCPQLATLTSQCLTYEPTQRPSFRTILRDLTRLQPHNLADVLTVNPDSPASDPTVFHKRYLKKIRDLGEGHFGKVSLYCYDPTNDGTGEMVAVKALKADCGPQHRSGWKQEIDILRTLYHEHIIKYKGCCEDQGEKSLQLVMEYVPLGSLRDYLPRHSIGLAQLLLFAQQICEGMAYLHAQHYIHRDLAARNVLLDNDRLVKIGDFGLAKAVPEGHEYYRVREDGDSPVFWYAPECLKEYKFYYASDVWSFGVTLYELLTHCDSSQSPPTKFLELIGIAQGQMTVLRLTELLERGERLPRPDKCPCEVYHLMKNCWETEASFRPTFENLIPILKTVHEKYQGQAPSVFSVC

Ki	Compound
< 10 nM	O=C1NCc2nc(-c3c(F)cccc3F)cc(Nc3ccc(N4CCOCC4=O)cn3)c21
< 10 nM	CC1CC(O)CC(C)N1c1ccc(Nc2cc(-c3c(F)cccc3F)nc3c2C(=O)NC3)nc1 (stereo not drawn)
< 10 nM	CC1(C)CCCC(=O)N1c1ccc(Nc2cc(-c3c(F)cccc3F)nc3c2C(=O)NC3)nc1
< 10 nM	O=C1NCc2nc(-c3c(F)cccc3F)cc(Nc3ccc(F)cn3)c21
< 10 nM	O=C1NCc2nc(-c3c(F)cccc3F)cc(Nc3ccc(N4CCCC(O)C4)cn3)c21 (stereo not drawn)
< 10 nM	O=C1NCc2nc(-c3c(F)cccc3F)cc(Nc3ccc(C4(O)CCOCC4)cn3)c21
< 10 nM	CC1(C)CCC(=O)N1c1ccc(Nc2cc(-c3c(F)cccc3F)nc3c2C(=O)NC3)nc1
< 10 nM	O=C1NCc2nc(-c3c(F)cccc3F)cc(Nc3ccc(C4=CCOCC4)cn3)c21
< 10 nM	O=C1NCc2nc(-c3c(F)cccc3F)c(F)c(Nc3ccc(N4CCOCC4)cn3)c21
< 10 nM	O=C1NCc2nc(-c3c(F)cccc3F)cc(Nc3ccc(N4CCN(CC(F)F)CC4)cn3)c21
< 10 nM	O=C1NCc2nc(-c3c(F)cccc3F)cc(Nc3ccc(N4CCC[C@H](O)C4)cn3)c21
< 10 nM	CC1COCCN1c1ccc(Nc2cc(-c3c(F)cccc3F)nc3c2C(=O)NC3)nc1 (stereo not drawn)
< 10 nM	O=C1NCc2nc(-c3c(F)cccc3F)cc(Nc3ccc(N4CCC5(CC5)C4)cn3)c21
< 10 nM	CN(c1ccc(Nc2cc(-c3c(F)cccc3F)nc3c2C(=O)NC3)nc1)C(C)(C)C
< 10 nM	C[C@@H]1CCC[C@H](C)N1c1ccc(Nc2cc(-c3c(F)cccc3F)nc3c2C(=O)NC3)nc1
< 10 nM	CC1(C)OCCN(c2ccc(Nc3cc(-c4c(F)cccc4F)nc4c3C(=O)NC4)nc2)C1=O

Ki	Compound
< 10 nM	CC1(C)CN(c2ccc(Nc3cc(-c4c(F)cccc4F)nc4c3C(=O)NC4)nc2)CC[C@@H]1O
< 10 nM	O=C1NCc2nc(-c3c(F)cccc3F)cc(Nc3ccc(NS(=O)(=O)C(F)F)cn3)c21
< 10 nM	O=C1NCc2nc(-c3c(F)cccc3F)cc(Nc3ccc(N4CCOCC4)nc3)c21
< 10 nM	CC1(C)CCN(c2ccc(Nc3cc(-c4c(F)cccc4F)nc4c3C(=O)NC4)nc2)CC1
< 10 nM	CC(C)(C)Nc1ccc(Nc2cc(-c3c(F)cccc3F)nc3c2C(=O)NC3)nc1
< 10 nM	C[C@@H]1CCC[C@@H](C)N1c1ccc(Nc2cc(-c3c(F)cccc3F)nc3c2C(=O)NC3)nc1
< 10 nM	O=C1NCc2nc(-c3c(F)cccc3F)cc(Nc3ccc(N4CCN(CCC(F)(F)F)CC4)cn3)c21
< 10 nM	COc1ccc(Nc2cc(-c3c(F)cccc3C#N)nc3c2C(=O)NC3)nc1
< 10 nM	CC(C)N1CCN(c2ccc(Nc3cc(-c4c(F)cccc4F)nc4c3C(=O)NC4)nc2)CC1
< 10 nM	C[C@@H]1COCCN1c1ccc(Nc2cc(-c3c(F)cccc3F)nc3c2C(=O)NC3)nc1
< 10 nM	C[C@H]1COC[C@H](C)N1c1ccc(Nc2cc(-c3c(F)cccc3F)nc3c2C(=O)NC3)nc1
< 10 nM	CC(C)N1CCN(c2ccc(Nc3cc(-c4c(F)cccc4F)nc4c3C(=O)NC4)nc2)C(=O)C1
< 10 nM	O=C1NCc2nc(-c3c(F)cccc3F)cc(Nc3ccc(N4C5COCC4C5)cn3)c21
< 10 nM	O=C1NCc2nc(-c3c(F)cccc3F)cc(Nc3ccc(C(=O)N4CCCCC4)cc3)c21
< 10 nM	O=C1NCc2nc(-c3c(F)cccc3F)cc(Nc3ccc(N4CCCOCC4)cn3)c21
< 10 nM	O=C1NCc2nc(-c3c(F)cccc3F)cc(Nc3ccc(N4CCCC4)cn3)c21

Continued, compound first:

Compound	Ki
O=C1NCc2nc(-c3c(F)cccc3F)cc(Nc3ccc(C(=O)N4CCOCC4)cn3)c21	< 10 nM
CCNC(=O)c1ccc(Nc2cc(-c3c(F)cccc3C#N)nc3c2C(=O)NC3)nc1	< 10 nM
CCNC(=O)c1ccc(Nc2cc(-c3c(F)cccc3Cl)nc3c2C(=O)NC3)nc1	< 10 nM
CC1(c2ccc(Nc3nc(-c4c(F)cccc4F)nc4c3C(=O)NC4)cc2)COC1	< 10 nM
O=C1NCc2nc(-c3c(F)cccc3F)cc(Nc3ccc(N4CC(F)(F)C4)cn3)c21	< 10 nM
CC[C@@]1(c2ccc(Nc3nc(-c4c(F)cccc4F)nc4c3C(=O)NC4)cc2)CCNC1=O	< 10 nM
CC[C@]1(c2ccc(Nc3nc(-c4c(F)cccc4F)nc4c3C(=O)NC4)cc2)CCNC1=O	< 10 nM
COCCNC(=O)c1ccc(Nc2cc(-c3c(F)cccc3F)nc3c2C(=O)NC3)nc1	< 10 nM
CCNC(=O)c1ccc(Nc2cc(-c3c(F)cccc3F)nc3c2C(=O)NC3)cn1	< 10 nM
CC1(O)CCN(C(=O)c2ccc(Nc3cc(-c4c(F)cccc4F)nc4c3C(=O)NC4)cc2)CC1	< 10 nM
CC(C)Oc1ccc(Nc2nc(-c3c(F)cccc3F)nc3c2C(=O)NC3)cc1	< 10 nM
CCNC(=O)c1cnc(Nc2cc(-c3c(F)cccc3F)nc3c2C(=O)NC3)cc1F	< 10 nM
CCN(CC)C(=O)c1ccc(Nc2cc(-c3c(F)cccc3F)nc3c2C(=O)NC3)cc1	< 10 nM
CCNC(=O)Cc1ncc(Nc2nc(-c3c(F)cccc3F)nc3c2C(=O)NC3)cn1	> 1000 nM
CCNC(=O)c1ccc(Nc2nc(-c3c(F)cccc3F)nc3c2C(=O)NC3)cc1	< 10 nM
COc1ccc(Nc2cc(-c3c(F)cccc3F)nc3c2C(=O)N[C@@H]3C)nc1	< 10 nM
O=C1NCc2nc(-c3c(F)cccc3F)cc(Nc3ccc(F)cc3)c21	< 10 nM
O=C(Cc1ccc(Nc2nc(-c3c(F)cccc3F)nc3c2C(=O)NC3)cc1)NC1CNC1	< 10 nM
CC(C)N1CCN(C(=O)c2ccc(Nc3cc(-c4c(F)cccc4F)nc4c3C(=O)NC4)cc2)CC1	< 10 nM
COC(=O)C(C)c1ccc(Nc2nc(-c3c(F)cccc3F)nc3c2C(=O)NC3)cc1 (stereo not drawn)	< 10 nM
CC1(O)CN(c2ccc(Nc3cc(-c4c(F)cccc4F)nc4c3C(=O)NC4)nc2)C1	< 10 nM
Cc1ccc(Nc2nc(-c3c(F)cccc3F)nc3c2C(=O)NC3)cc1	< 10 nM
N#Cc1cccc(F)c1-c1cc(Nc2ccc(C(=O)N3CCOCC3)cc2)c2c(n1)CNC2=O	< 10 nM
O=C1NCc2nc(-c3c(F)cccc3F)cc(Nc3ccc(C(=O)N4CCC(F)(F)CC4)cc3)c21	< 10 nM
CN1CCN(C)[C@](C)(c2ccc(Nc3nc(-c4c(F)cccc4F)nc4c3C(=O)NC4)cc2)C1=O	< 10 nM
C[C@@H]1COC[C@@H](C)N1C(=O)c1ccc(Nc2cc(-c3c(F)cccc3F)nc3c2C(=O)NC3)cc1	< 10 nM
